# Values quoted from earlier work in patent US11224632B2 (priority 2016, dated 2022).
# Molecular target: N-type calcium channel (Homo sapiens, UniProt Q00975)
# Details: in vivo; cited from earlier work
# Sequence of N-type calcium channel (Q00975 whole entry, looked up): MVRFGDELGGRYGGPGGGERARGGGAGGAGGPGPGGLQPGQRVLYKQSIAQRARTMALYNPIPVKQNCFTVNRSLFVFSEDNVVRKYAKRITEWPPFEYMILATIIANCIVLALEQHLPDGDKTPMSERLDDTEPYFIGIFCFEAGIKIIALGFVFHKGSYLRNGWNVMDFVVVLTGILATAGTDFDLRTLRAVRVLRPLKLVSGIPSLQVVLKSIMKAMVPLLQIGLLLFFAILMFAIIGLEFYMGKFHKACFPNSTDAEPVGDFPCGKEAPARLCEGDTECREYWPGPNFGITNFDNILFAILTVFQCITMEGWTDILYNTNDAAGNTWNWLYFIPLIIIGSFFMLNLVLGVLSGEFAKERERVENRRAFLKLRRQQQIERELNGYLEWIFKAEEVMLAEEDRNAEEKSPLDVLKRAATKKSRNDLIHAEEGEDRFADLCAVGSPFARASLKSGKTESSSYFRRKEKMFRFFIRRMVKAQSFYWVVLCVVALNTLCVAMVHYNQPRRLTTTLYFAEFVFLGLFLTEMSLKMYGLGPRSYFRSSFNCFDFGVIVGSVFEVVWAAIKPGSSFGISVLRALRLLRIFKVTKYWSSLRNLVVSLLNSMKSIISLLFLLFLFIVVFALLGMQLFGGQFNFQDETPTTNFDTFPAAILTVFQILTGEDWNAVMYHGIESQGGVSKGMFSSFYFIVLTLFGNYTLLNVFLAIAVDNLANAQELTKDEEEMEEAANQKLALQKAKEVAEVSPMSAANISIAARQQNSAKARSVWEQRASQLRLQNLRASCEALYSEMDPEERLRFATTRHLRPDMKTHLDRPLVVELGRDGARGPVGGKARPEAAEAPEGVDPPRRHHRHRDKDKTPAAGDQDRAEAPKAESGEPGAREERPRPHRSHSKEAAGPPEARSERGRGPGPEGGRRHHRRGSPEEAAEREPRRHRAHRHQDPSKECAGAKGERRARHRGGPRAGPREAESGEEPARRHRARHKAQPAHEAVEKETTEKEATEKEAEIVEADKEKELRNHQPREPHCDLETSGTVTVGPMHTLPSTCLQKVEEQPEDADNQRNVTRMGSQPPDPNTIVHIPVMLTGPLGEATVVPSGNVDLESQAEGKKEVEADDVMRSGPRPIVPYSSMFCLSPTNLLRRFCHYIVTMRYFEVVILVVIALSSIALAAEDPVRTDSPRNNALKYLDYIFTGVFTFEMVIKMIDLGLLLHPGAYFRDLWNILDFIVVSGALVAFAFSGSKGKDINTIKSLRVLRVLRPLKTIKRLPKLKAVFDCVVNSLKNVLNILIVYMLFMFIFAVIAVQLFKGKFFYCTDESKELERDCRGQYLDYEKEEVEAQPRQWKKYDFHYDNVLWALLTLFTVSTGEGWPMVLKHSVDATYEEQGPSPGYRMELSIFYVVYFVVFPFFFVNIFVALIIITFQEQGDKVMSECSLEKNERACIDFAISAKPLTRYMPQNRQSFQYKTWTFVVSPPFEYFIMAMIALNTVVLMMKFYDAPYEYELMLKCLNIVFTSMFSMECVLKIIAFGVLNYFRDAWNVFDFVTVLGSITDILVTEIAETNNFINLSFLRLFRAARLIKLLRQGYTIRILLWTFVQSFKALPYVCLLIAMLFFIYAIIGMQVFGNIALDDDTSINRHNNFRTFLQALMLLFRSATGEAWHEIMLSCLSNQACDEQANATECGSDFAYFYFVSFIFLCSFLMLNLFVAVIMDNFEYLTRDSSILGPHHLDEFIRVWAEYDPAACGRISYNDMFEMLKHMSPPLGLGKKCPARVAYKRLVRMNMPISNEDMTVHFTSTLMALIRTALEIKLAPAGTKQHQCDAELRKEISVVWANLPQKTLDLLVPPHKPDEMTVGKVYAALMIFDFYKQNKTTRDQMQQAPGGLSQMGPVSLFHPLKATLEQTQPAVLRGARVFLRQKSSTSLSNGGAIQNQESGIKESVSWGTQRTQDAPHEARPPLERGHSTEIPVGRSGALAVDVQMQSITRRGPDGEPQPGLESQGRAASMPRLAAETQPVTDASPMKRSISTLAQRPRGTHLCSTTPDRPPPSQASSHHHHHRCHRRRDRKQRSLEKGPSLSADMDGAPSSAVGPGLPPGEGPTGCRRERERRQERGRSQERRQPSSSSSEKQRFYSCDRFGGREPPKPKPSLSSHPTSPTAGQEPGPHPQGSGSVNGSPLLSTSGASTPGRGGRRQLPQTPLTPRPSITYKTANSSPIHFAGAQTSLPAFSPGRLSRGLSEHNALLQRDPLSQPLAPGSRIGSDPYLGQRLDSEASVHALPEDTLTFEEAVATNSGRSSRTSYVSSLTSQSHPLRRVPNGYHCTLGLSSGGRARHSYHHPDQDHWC
smiles,measurement,value
CSCC[C@@H]1NC(=O)[C@H](CC(C)C)NC(=O)[C@H](CCCNC(=N)N)NC(=O)[C@H](CO)NC(=O)[C@@H]2CSSC[C@@H]3NC(=O)[C@H](CO)NC(=O)CNC(=O)[C@H]([C@@H](C)O)NC(=O)[C@H](CSSC[C@H](N)C(=O)N[C@@H](CCCCN)C(=O)NCC(=O)N[C@@H](CCCCN)C(=O)NCC(=O)N[C@@H](C)C(=O)N[C@@H](CCCCN)C(=O)N2)NC(=O)[C@H](CSSC[C@@H](C(N)=O)NC(=O)[C@H](CCCCN)NC(=O)CNC(=O)[C@H](CO)NC(=O)[C@H](CCCNC(=N)N)NC3=O)NC(=O)[C@H](CC(=O)O)NC(=O)[C@H](Cc2ccc(O)cc2)NC1=O [ziconotide],patients with severe CNS adverse effects,88%
